Data taken from US5616593A, “Compositions containing piperine” (priority 1993, dated 1997).

Assays:
[1] = Clinical study comparing bio-availability of two amlodipine formulations (with and without piperine); type: in vivo, human (healthy volunteers); settings: with vs without piperine; amlodipine 10 mg, piperine 5 mg, hard gelatin capsules; 12 healthy volunteers
Procedure: Dosage Form: Hard gelatin capsules
Amlodipine and piperine were milled. The two components were blended together.
The homogenecity of five random samples of the mixture was confirmed from reproducible analysis. The formulation was then encapsulated in hard gelatin capsule in hand-operated capsule filling machine.
To compare the bio-availability of two formulations containing amlodipine (with and without piperine) a clinical study was conducted in 12 healthy volunteers.

[2] = cited from earlier work
[3] = system: natural immune mechanism of the body; assay: Stimulation of natural immune mechanism / antibody production; design: species or system human
[4] = combined with known anti-tuberculosis and/or anti-leprosy drugs; cited from earlier work
[5] = Intrinsic pharmaceutical or medicinal properties of piperine; settings: piperine alone
serum proteins = assay: Binding of the serum proteins; design: species or system human; settings: combined with drug
[6] = Retention of certain drugs in the body; design: species or system human; settings: combined with piperine
[7] = Absorption of certain drugs through gastro-intestinal membranes; design: species or system human; settings: through membranes of gastro-intestinal tract
[8] = Clinical trial comparing bio-availability of two pentazocine formulations (with and without piperine); type: in vivo, human (healthy volunteers); settings: with vs without piperine; pentazocine 25 mg, piperine 5 mg, hard gelatin capsules; 12 healthy volunteers
Procedure: Pentazocine -- -- 25 mg.
Dosage Form: Hard gelatin capsules.
Both pentazocine and piperine were milled and were then blended together. With repeated sieving, both the components were mixed to a homogenous mixture. Five samples of mixtures were randomly selected and their homogenecity was confirmed by reproducible analysis. With the help of hand-operated capsule filling machine, the formulation was encapsulated in hard gelatin capsule.
A clinical trial was conducted in 12 healthy volunteers in order to compare the bio-availability of two formulations containing pentazocine (with and without piperine).

## CCOC(=O)C1=C(COCCN)NC(C)=C(C(=O)OC)C1c1ccccc1Cl (stereo not shown) [Amlodipine]
[1]
  blood levels of the active ingredient amlodipine: increased blood levels

## O=C(/C=C/C=C/c1ccc2c(c1)OCO2)N1CCCCC1 [Piperine]
[2]; benzene, chloroform, ether, ethyl acetate, dichloromethane, alcohol, acetic acid
  solubility in organic solvents: soluble in benzene, chloroform, ether, ethyl acetate, dichloromethane, alcohol, acetic acid
[2]; water, petroleum ether
  solubility in water and petroleum ether: insoluble in water, and petroleum ether
[3]
  stimulation of natural immune mechanism, production of antibodies against microbial infections: stimulate the natural immune mechanism of the body so as to enhance the production of antibodies against microbial infections
[4]
  therapeutic efficacy of anti-tuberculosis and/or anti-leprosy drugs: increased therapeutic efficacy
[5]
  pharmaceutical or medicinal properties of piperine as such: does not have any pharmaceutical or medicinal properties
Serum proteins
  binding of the serum proteins: increase the binding of the serum proteins
[6]
  retention of certain drugs in the human body: retain certain drugs when combined with it in the human body for a longer period of time
[7]
  absorption of certain drugs: increase the absorption of certain drugs

## CC(C)=CCN1CCC2(C)c3cc(O)ccc3CC1C2C (stereo not shown) [pentazocine]
[8]
  blood levels of the active ingredient pentazocine: increased blood levels
